Reference: patent US20090137572A1, “2-substituted-4-heteroaryl-pyrimidines useful for the treatment of proliferative disorders” (priority 2004, published 2009)

Key:
Format in all cases: biochemical
Aurora A kinase = target: T1, Aurora A kinase (Homo sapiens, UniProt O14965); experiment: Aurora-A (human) kinase assay (Kemptide substrate); settings: pIC50 is -log(IC50, M); 15 μM ATP; read-out: Kinase Inhibition pIC50 Aurora A kinase (converted)
T1 construct: purchased
T1 sequence (O14965 1-403): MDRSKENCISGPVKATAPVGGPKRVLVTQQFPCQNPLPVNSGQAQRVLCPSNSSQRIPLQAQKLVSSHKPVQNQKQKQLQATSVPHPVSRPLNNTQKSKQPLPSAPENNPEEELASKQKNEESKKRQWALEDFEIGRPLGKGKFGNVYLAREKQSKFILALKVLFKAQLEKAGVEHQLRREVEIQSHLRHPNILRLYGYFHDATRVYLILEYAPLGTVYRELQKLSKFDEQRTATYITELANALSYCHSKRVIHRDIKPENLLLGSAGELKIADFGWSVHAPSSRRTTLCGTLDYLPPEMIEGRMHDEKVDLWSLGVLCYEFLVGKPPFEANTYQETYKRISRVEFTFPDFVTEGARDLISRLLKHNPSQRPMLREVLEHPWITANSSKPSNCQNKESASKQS
Method in brief: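 Kemptide (LRRASLG, 200 μM) phosphorylation by 5-10 ng commercial aurora-A measured as [γ-33P] incorporation at 15 μM ATP with 10 mM Mg acetate, pH 7.0 MOPS buffer. Reaction ran 40 min at room temperature; acid-stopped, captured on P81 filters, scintillation read.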

CDK9/cyclin T1 = CDK9/cyclin T1 (Homo sapiens, UniProt P50750); experiment: CDK 9 assay (CTD peptide substrate); settings: read-out: Kinase Inhibition pIC50 CDK9-cyclin T1 (converted)
Chain of CDK9/cyclin T1 (P50750 whole entry): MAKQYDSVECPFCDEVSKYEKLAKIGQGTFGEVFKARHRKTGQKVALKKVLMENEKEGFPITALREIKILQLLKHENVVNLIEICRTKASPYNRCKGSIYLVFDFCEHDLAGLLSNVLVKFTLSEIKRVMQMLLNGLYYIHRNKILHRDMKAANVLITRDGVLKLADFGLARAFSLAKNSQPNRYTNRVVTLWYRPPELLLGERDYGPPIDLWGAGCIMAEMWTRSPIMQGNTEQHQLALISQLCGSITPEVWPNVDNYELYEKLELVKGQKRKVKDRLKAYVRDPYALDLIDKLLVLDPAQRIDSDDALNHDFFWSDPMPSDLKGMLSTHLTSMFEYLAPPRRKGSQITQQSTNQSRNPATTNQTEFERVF
Chain of CDK9/cyclin T1 (O60563 whole entry partner): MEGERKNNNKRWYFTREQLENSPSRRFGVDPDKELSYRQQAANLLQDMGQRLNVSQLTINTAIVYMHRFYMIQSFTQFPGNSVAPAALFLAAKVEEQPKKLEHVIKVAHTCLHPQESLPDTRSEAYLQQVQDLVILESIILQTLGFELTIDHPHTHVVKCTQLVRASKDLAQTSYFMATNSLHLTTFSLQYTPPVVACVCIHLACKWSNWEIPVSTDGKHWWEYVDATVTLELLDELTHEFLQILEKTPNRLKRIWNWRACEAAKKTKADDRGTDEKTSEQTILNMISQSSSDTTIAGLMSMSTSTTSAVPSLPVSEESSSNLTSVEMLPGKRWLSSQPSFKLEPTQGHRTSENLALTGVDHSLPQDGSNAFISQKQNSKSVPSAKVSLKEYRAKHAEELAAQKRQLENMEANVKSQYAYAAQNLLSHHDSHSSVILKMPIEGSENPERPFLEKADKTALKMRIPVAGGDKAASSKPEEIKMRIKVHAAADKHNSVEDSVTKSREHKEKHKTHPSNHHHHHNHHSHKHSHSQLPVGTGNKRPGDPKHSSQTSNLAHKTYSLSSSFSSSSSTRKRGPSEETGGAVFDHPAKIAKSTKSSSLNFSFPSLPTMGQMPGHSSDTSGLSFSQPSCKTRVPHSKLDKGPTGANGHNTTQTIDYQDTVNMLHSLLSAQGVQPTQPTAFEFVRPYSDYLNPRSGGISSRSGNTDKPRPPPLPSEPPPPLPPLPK
Method in brief: (§1)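 Inhibition measured against recombinant human kinase/cyclin complex phosphorylating biotin-(Tyr-Ser-Pro-Thr-Ser-Pro-Ser)4 peptide, 100 μM radiolabelled ATP, 45 min at 30° C. Product quantified by filter capture and scintillation counting.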

CDK7/cyclin H = CDK7/cyclin H (Homo sapiens, UniProt P50613); experiment: CDK 7 assay (CTD peptide substrate); settings: read-out: Kinase Inhibition pIC50 CDK7-cyclin H (converted)
Chain of CDK7/cyclin H (P50613 whole entry): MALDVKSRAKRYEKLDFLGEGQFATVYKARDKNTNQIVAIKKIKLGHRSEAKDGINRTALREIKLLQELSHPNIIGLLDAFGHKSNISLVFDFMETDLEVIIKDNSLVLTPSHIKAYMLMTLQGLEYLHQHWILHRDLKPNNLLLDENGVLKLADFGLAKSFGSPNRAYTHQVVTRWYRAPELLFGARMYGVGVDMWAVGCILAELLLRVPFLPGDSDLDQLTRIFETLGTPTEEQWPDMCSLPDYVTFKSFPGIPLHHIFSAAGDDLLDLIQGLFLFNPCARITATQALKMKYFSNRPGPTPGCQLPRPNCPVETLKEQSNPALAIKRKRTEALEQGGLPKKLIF
Chain of CDK7/cyclin H (P51946 whole entry partner): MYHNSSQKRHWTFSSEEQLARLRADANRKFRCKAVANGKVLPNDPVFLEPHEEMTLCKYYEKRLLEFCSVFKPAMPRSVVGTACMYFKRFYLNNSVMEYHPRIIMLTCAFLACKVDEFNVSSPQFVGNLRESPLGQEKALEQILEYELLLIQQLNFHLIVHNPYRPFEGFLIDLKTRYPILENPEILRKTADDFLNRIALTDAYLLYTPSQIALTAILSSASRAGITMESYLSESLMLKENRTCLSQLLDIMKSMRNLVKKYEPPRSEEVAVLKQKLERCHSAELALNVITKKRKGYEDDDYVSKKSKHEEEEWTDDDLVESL
Method in brief: as §1

CDK2-cyclin A = CDK2-cyclin A (Homo sapiens, UniProt P24941); experiment: Kinase assay (radioactive phosphate incorporation), CDK2-cyclin A; settings: read-out: Kinase Inhibition pIC50 CDK2-cyclin A (converted)
Method in brief: (§2)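 Each recombinant kinase was combined with its polypeptide substrate in pH 7.4 assay buffer. Mg/ATP mix carrying [γ-32P]-ATP (100 μM ATP) was then added and the plate incubated at 30° C. After stopping on ice, the reaction was filtered, washed with 75 mM orthophosphoric acid, dried and counted.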

CDK4-cyclin D1 = CDK4-cyclin D1 (Homo sapiens, UniProt P11802); experiment: Kinase assay (radioactive phosphate incorporation), CDK4-cyclin D1; settings: read-out: Kinase Inhibition pIC50 CDK4-cyclin D1 (converted)
Chain of CDK4-cyclin D1 (P11802 whole entry): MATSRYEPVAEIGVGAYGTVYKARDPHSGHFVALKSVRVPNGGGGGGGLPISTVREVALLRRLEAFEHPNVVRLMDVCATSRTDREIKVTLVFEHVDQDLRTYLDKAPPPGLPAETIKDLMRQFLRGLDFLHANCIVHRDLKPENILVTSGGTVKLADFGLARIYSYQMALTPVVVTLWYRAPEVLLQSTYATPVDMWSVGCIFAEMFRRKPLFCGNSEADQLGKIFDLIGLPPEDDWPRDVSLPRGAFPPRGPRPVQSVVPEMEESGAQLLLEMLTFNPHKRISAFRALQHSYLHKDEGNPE
Chain of CDK4-cyclin D1 (P24385 whole entry partner): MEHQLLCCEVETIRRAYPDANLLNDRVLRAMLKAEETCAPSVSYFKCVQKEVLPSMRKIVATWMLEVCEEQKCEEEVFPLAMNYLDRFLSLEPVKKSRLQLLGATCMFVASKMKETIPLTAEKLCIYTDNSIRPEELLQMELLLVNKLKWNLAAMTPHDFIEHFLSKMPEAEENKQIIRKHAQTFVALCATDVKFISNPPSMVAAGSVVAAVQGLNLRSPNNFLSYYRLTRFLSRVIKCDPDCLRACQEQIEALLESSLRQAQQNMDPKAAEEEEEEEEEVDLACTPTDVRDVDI
Method in brief: as §2

GSK3b = GSK3b (Homo sapiens, UniProt P49841); experiment: Kinase assay (radioactive phosphate incorporation), GSK-3b; settings: read-out: Kinase Inhibition pIC50 GSK-3b (converted)
Chain of GSK3b (P49841 whole entry, species assumed): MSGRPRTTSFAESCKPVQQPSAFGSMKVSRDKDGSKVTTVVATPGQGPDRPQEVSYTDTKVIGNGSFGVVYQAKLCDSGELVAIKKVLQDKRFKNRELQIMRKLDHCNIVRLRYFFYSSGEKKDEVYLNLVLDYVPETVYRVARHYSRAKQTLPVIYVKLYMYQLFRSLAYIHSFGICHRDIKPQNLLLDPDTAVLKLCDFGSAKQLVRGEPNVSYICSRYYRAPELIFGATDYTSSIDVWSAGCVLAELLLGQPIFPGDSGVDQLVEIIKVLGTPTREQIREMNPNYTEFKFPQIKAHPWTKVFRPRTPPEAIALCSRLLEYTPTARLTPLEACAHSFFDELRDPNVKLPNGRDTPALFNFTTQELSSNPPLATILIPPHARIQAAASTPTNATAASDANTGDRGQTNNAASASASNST
Method in brief: as §2

CDK2-cycline E = CDK2-cycline E (Homo sapiens, UniProt P24941); experiment: Kinase assay (radioactive phosphate incorporation), CDK2-cyclin E; settings: read-out: Kinase Inhibition pIC50 CDK2-cycline E (converted)
Method in brief: as §2

CDK1-cyclin B = CDK1-cyclin B (Homo sapiens, UniProt P06493); experiment: Kinase assay (radioactive phosphate incorporation), CDK1-cyclin B; settings: read-out: Kinase Inhibition pIC50 CDK1-cyclin B (converted)
Chain of CDK1-cyclin B (P06493 whole entry): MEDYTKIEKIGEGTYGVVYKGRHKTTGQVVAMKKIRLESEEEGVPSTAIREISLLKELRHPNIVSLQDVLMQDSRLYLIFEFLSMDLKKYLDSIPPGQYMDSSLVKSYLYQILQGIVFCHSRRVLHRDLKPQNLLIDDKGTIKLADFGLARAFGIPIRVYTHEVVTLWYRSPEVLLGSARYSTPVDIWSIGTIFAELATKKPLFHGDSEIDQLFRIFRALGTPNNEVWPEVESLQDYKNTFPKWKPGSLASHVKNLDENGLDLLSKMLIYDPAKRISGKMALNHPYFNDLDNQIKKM
Chain of CDK1-cyclin B (P14635 whole entry partner): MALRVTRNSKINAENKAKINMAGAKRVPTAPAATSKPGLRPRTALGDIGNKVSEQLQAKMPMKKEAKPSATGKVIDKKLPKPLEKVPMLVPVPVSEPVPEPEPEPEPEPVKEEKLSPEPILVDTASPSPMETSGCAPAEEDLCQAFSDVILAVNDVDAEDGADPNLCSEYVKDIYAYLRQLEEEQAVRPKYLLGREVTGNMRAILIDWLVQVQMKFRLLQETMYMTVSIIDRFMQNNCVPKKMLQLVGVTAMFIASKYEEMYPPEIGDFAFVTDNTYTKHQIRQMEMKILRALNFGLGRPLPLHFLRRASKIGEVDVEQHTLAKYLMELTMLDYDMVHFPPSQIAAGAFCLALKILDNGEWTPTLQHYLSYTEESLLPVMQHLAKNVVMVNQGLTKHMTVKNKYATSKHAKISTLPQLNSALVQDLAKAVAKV
Method in brief: as §2

[1] = target: T2, Flt3 (FMS-like tyrosine kinase-3) (Homo sapiens, UniProt P36888); experiment: Kinase assay (radioactive phosphate incorporation), Flt3; settings: pIC50 is -log(IC50, M), read-out: Kinase Inhibition pIC50 Flt3 (converted)
T2 sequence (P36888 27-993): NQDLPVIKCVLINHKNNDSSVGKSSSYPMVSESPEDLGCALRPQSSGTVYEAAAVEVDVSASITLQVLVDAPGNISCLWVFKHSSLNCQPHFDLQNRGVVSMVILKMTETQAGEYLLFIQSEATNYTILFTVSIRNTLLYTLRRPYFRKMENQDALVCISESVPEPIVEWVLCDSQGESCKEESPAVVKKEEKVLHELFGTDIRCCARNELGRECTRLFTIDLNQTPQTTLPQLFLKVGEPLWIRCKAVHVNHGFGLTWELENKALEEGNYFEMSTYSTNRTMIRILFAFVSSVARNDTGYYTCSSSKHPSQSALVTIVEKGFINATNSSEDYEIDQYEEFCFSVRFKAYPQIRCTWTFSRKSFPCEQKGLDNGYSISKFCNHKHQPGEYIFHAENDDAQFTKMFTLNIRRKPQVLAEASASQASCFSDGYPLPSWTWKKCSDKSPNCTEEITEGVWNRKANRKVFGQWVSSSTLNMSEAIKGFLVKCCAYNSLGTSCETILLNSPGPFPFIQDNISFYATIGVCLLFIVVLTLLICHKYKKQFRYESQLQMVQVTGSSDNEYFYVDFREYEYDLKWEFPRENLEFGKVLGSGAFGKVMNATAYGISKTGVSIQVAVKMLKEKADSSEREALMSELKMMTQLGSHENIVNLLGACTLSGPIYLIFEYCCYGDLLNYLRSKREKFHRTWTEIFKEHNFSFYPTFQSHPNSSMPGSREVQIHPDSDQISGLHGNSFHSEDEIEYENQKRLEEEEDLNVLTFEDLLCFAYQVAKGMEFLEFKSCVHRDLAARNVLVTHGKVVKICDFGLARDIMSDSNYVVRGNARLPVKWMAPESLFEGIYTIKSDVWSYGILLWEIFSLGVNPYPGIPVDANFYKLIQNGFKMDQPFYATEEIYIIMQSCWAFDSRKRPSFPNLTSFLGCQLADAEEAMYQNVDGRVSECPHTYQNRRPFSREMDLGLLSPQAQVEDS
Method in brief: as §2

| SMILES | IC50 (Aurora A kinase) | IC50 (CDK9/cyclin T1) | IC50 (CDK7/cyclin H) | IC50 (CDK2-cyclin A) | IC50 (CDK4-cyclin D1) | IC50 (GSK3b) | IC50 (CDK2-cycline E) | IC50 (CDK1-cyclin B) | IC50 [1] |
| --- | --- | --- | --- | --- | --- | --- | --- | --- | --- |
| CCNc1nc(C)c(-c2ccnc(Nc3cccc(CNS(C)(=O)=O)c3)n2)s1 [Compound 5, N-{3-[4-(2-Ethylamino-4-methyl-thiazol-5-yl)-pyrimidin-2-ylamino]-benzyl}-methanesulfonamide] | 31.6 nM | 12.6 nM | 251 nM | 200 nM | 158 nM | 200 nM | 158 nM | 1260 nM | 50.1 nM |
| Cc1nc(C)c(-c2ccnc(Nc3cccc(N4CCNCC4)c3)n2)s1 [Compound 8, [4-(2,4-Dimethyl-thiazol-5-yl)-pyrimidin-2-yl]-(3-piperazin-1-yl-phenyl)-amine] | 39800 nM | 501 nM | 2000 nM | 5010 nM | 2510 nM | 12600 nM | 2000 nM | 5010 nM | 50.1 nM |
| Cc1nc(N)sc1-c1ccnc(Nc2cccc(CNS(=O)(=O)C(F)(F)F)c2)n1 [Compound 12, N-{3-[4-(2-Amino-4-methyl-thiazol-5-yl)-pyrimidin-2-ylamino]-benzyl}-C,C,C-trifluoro-methanesulfonamide] | 251 nM | 100 nM | 200 nM | 501 nM | 631 nM | 2000 nM | 63.1 nM | 631 nM | 794 nM |
| CNc1nc(C)c(-c2ccnc(Nc3ccc(CNC(C)=O)cc3)n2)s1 [Compound 14, N-{4-[4-(4-Methyl-2-methylamino-thiazol-5-yl)-pyrimidin-2-ylamino]-benzyl}-acetamide] | – | 79.4 nM | 794 nM | 631 nM | 126 nM | 631 nM | 39.8 nM | 398 nM | 79.4 nM |
| CC(=O)NCc1ccc(Nc2nccc(-c3sc(C)nc3C)n2)cc1 [Compound 15, N-{4-[4-(2,4-Dimethyl-thiazol-5-yl)-pyrimidin-2-ylamino]-benzyl}-acetamide] | 39.8 nM | 794 nM | 1580 nM | 1000 nM | 631 nM | 1000 nM | 200 nM | 501 nM | 501 nM |
| CC(=O)NCc1ccc(Nc2nccc(-c3sc(N)nc3C)n2)cc1 [Compound 16, N-{4-[4-(2-Amino-4-methyl-thiazol-5-yl)-pyrimidin-2-ylamino]-benzyl}-acetamide] | 79.4 nM | 251 nM | 2000 nM | 1260 nM | 501 nM | 1000 nM | 158 nM | 1000 nM | 158 nM |
| CCNc1nc(C)c(-c2ccnc(Nc3ccc(S(C)(=O)=O)cc3)n2)s1 [Compound 17, [4-(2-Ethylamino-4-methyl-thiazol-5-yl)-pyrimidin-2-yl]-(4-methanesulfonyl-phenyl)-amine] | 39.8 nM | 200 nM | 2510 nM | 39.8 nM | 1580 nM | 2000 nM | 50.1 nM | 1000 nM | 251 nM |
| CCNc1nc(C)c(-c2ccnc(Nc3cccc(S(N)(=O)=O)c3)n2)s1 [Compound 18, 3-[4-(2-Ethylamino-4-methyl-thiazol-5-yl)-pyrimidin-2-ylamino]-benzenesulfonamide] | – | 15.8 nM | 126 nM | 1580 nM | 251 nM | 2510 nM | 794 nM | 2000 nM | 158 nM |
| CNc1nc(C)c(-c2ccnc(Nc3ccc(S(C)(=O)=O)cc3)n2)s1 [Compound 20, (4-Methanesulfonyl-phenyl)-[4-(4-methyl-2-methylamino-thiazol-5-yl)-pyrimidin-2-yl]-amine] | – | 63.1 nM | 3980 nM | 15.8 nM | 2510 nM | 316 nM | 2.51 nM | 158 nM | 316 nM |
| CNc1nc(C)c(-c2ccnc(Nc3cccc(S(=O)(=O)NC)c3)n2)s1 [Compound 21, N-Methyl-3-[4-(4-methyl-2-methylamino-thiazol-5-yl)-pyrimidin-2-ylamino]-benzenesulfonamide] | 79.4 nM | 12.6 nM | 251 nM | 794 nM | 39.8 nM | 251 nM | 63.1 nM | 1000 nM | 158 nM |
| CCNc1nc(C)c(-c2ccnc(Nc3ccc(S(=O)(=O)NCCO)cc3)n2)s1 [Compound 65, 4-[4-(2-Ethylamino-4-methyl-thiazol-5-yl)-pyrimidin-2-ylamino]-N-(2-hydroxy-ethyl)-benzenesulfonamide] | 251 nM | – | 200 nM | 20 nM | 12.6 nM | 316 nM | 15.8 nM | 50.1 nM | 200 nM |
| CNc1nc(C)c(-c2ccnc(Nc3ccc(S(=O)(=O)NCCO)cc3)n2)s1 [Compound 67, N-(2-Hydroxy-ethyl)-4-[4-(4-methyl-2-methylamino-thiazol-5-yl)-pyrimidin-2-ylamino]-benzenesulfonamide] | 316 nM | – | 3980 nM | 15.8 nM | 501 nM | 1260 nM | 6.31 nM | 50.1 nM | 316 nM |
| Cc1nc(C)c(-c2ccnc(Nc3ccc(S(=O)(=O)NCCO)cc3)n2)s1 [Compound 69, 4-[4-(2,4-Dimethyl-thiazol-5-yl)-pyrimidin-2-ylamino]-N-(2-hydroxy-ethyl)-benzenesulfonamide] | 79.4 nM | 398 nM | 2000 nM | 20 nM | 1000 nM | 1580 nM | 10 nM | 10 nM | – |
| Cc1nc(C)c(-c2ccnc(Nc3cccc(S(=O)(=O)NCCO)c3)n2)s1 [Compound 78, 3-[4-(2,4-Dimethyl-thiazol-5-yl)-pyrimidin-2-ylamino]-N-(2-hydroxy-ethyl)-benzenesulfonamide] | 631 nM | 158 nM | 1260 nM | 2000 nM | 501 nM | 1000 nM | 316 nM | 2000 nM | – |
